{"source": "patent US11959079B2", "about": "“Methods for treating apolipoprotein E4-associated disorders” (priority 2009, dated 2024)", "type_in_all_cases": "in vivo", "key": {"[1]": {"tested_on": "female apoE4-KI mice", "assay": "Morris water maze, spatial learning and memory, apoE4-KI mice", "method": "(§1) Human apoE3-KI and apoE4-KI mice (Sullivan et al., 2004) were from Taconic. Tau−/− mice (Dawson et al., 2001) were backcrossed onto the mE−/− background, and mE−/−Tau−/− mice were crossed with apoE4(Δ272-299)mE−/− Tau+/+ mice. Studies were conducted on female mice at 1, 3, 6, 12, 16, or 21 months of age. All mice were on a C57BL/6 genetic background. Some apoE4-KI and apoE4(Δ272-299)mE−/−Tau+/+ mice received daily intraperitoneal injections of pentobarbital (20 mg/kg) or saline in their home cages for 21 days before the first day of Morris Water Maze (MWM) training and 1 h after daily training. Some apoE4(Δ272-299)mE−/−Tau−/− mice were given daily injections of picrotoxin (1 mg/kg) or saline intraperitoneally in their home cages for 3 days before MWM training and 30 min before daily training. Brain tissues were collected after a 1-min transcardial perfusion with 0.9% NaCl. One hemibrain from each mouse was fixed in 4% paraformaldehyde, sectioned (30 μm) with a microtome, and immunostained as described below. All experiments were performed in accordance with NIH and institutional guidelines.\n(§2) The water maze pool (diameter, 122 cm) contained opaque water (22-23° C.) with a platform 10 cm in diameter. The platform was submerged 1.5 cm during hidden platform sessions (Harris et al., 2003; Raber et al., 1998; Roberson et al., 2007) and marked with black-and-white-striped mast (15 cm high) during cued training sessions. Mice were trained to locate the hidden platform (hidden days 1-5) and the cued platform (visible days 1-3) in two daily sessions (3.5 h apart), each consisting of two 60-s trials (hidden and cued training) with a 15-min intertrial interval. The platform location remained constant in the hidden platform sessions but was changed for each cued platform session. Entry points were changed semirandomly between trials. Twenty-four, 72, and 96 hours after the last hidden platform training, a 60-s probe trial (platform removed) was performed. Entry points for the probe trial were in the west quadrant, and the target quadrant was in the southeast quadrant. Performance was monitored with an EthoVision video-tracking system (Noldus Information Technology)."}, "[2]": {"tested_on": "female apoE4-KI mice", "assay": "Quantification of GAD67-positive hilar GABAergic interneurons, apoE4-KI mice", "settings": "16-month-old female apoE4-KI mice; 20 mg/kg i.p.", "method": "as §1, with “Brain tissues were collected after a 1-min transcardial perfusion with 0.9% NaCl. One hemibrain from each mouse was fixed in 4% paraformaldehyde, sectioned (30 μm) with a microtome, and immunostained as described below. All experiments were performed in accordance with NIH and institutional guidelines.” left out\n(§3) Sliding microtome sections (30 μm) were immunostained with the following primary antibodies: polyclonal goat anti-human apoE (1:8000 for fluorescence; Calbiochem), rabbit anti-neuropeptide Y (1:8000 for […] (DAB); ImmunoStar), rat anti-somatostatin (1:100 for DAB; Chemicon), mouse anti-GAD67 (1:1000 for DAB; Chemicon), mouse anti-MAP2 (1:500 for fluorescence; Sigma), mouse anti-synaptophysin (1:500 for fluorescence; DakoCytomation), and phosphorylation-dependent monoclonal antibody AT8 (p-Ser202; 1:100 for DAB; Endogen). […]"}, "[3]": {"tested_on": "apoE4(Δ272-299)mE−/−Tau+/+ mice", "assay": "Morris water maze, apoE4(Δ272-299)mE−/−Tau+/+ mice", "settings": "12-month-old female mice, 20 mg/kg i.p., 21 days before and every day during MWM, vs saline", "method": "as §1\nThe water maze pool (diameter, 122 cm) contained opaque water (22-23° C.) with a platform 10 cm in diameter. […] Performance was monitored with an EthoVision video-tracking system (Noldus Information Technology)."}, "[4]": {"tested_on": "apoE4(Δ272-299)mE−/−Tau−/− mice", "assay": "Morris water maze, apoE4(Δ272-299)mE−/−Tau−/− mice", "method": "as §1\nas §2, with “Entry points for the probe trial were in the west quadrant, and the target quadrant was in the southeast quadrant.” left out"}, "[5]": {"tested_on": "apoE4(Δ272-299)mE−/−Tau−/− mice", "assay": "Quantification of GAD67-positive hilar GABAergic interneurons, apoE4(Δ272-299)mE−/−Tau−/− mice", "settings": "12-month-old female mice, 1 mg/kg i.p., 3 days before and every day during MWM", "method": "as §1, with “Brain tissues were collected after a 1-min transcardial perfusion with 0.9% NaCl. One hemibrain from each mouse was fixed in 4% paraformaldehyde, sectioned (30 μm) with a microtome, and immunostained as described below. All experiments were performed in accordance with NIH and institutional guidelines.” left out\nas §3"}, "[6]": {"tested_on": "wildtype mice", "assay": "Morris water maze, wildtype mice", "settings": "12-month-old female wildtype mice, 1 mg/kg i.p., 3 days before and every day during MWM", "method": "as §2"}, "[7]": {"tested_on": "mE−/−Tau+/+ mice", "assay": "Morris water maze, mE−/−Tau+/+ mice", "settings": "12-month-old female mE−/−Tau+/+ mice, 1 mg/kg i.p., 3 days before and every day during MWM", "method": "as §2"}}, "note": "“Also recorded” adds a separate entry of the source."}
{"compound": "CCCC(C)C1(CC)C(=O)NC(=O)NC1=O", "note": "(centres unmarked) [pentobarbital]", "values": [{"measurement": "memory deficits in probe trial (target quadrant and target cross tests)", "setting": "[1]; 16-month-old apoE4-KI mice, probe trial 96 h after last hidden session, 20 mg/kg i.p.", "result": "rescued memory deficits"}, {"measurement": "learning and memory deficits", "setting": "[1]; 16-month-old female apoE4-KI mice, 20 mg/kg i.p. daily, 21 days before and during MWM", "result": "rescued the learning and memory deficits"}, {"measurement": "learning curve (escape latency, hidden platform days)", "setting": "[1]; 16-month-old female apoE4-KI mice, 20 mg/kg i.p., 21 days before and daily during MWM, vs saline", "result": "differed from that of saline-treated apoE4-KI mice (p<0.05, repeated-measures ANOVA) but resembled that of untreated apoE3-KI mice"}, {"measurement": "learning deficit / learning curve (hidden platform)", "setting": "[1]; 21-month-old female apoE4-KI mice, 20 mg/kg, 21 days before and daily during MWM, vs saline, 20 mg/kg", "result": "rescued; also recorded: differed from that of saline-treated apoE4-KI mice (p<0.05, repeated-measures ANOVA) but resembled that of saline-treated apoE3-KI mice"}, {"measurement": "number of hilar GABAergic interneurons", "setting": "[2]", "result": "did not alter"}, {"measurement": "learning deficit (hidden platform sessions)", "setting": "[3]", "result": "rescued the learning and memory deficits; also recorded: rescued the learning deficit; also recorded: learned better than saline-treated apoE4(Δ272-299)mE−/−Tau+/+ mice (p<0.01)"}]}
{"compound": "picrotoxin", "values": [{"measurement": "learning curve (hidden platform)", "setting": "[4]; 1 mg/kg i.p., 3 days before and daily during MWM, vs saline-treated controls", "result": "resembled that of saline-treated apoE4(Δ272-299)mE−/−Tau+/+ mice"}, {"measurement": "target crossing test in probe trial", "setting": "[4]; probe trial 24 h after last hidden session, 1 mg/kg i.p.", "result": "performed significantly worse"}, {"measurement": "rescue (prevention) of learning and memory deficits by tau removal", "setting": "[4]; subthreshold dose 1 mg/kg i.p., 3 days before and daily during MWM", "result": "abolished"}, {"measurement": "number of hilar GABAergic interneurons (GAD67-positive)", "setting": "[5]", "result": "unaltered; also recorded: does not alter"}, {"measurement": "learning and memory performance", "setting": "[6]", "result": "does not alter the learning and memory performance"}, {"measurement": "learning and memory performance", "setting": "[6]; listed as Picrotoxin", "result": "did not alter"}, {"measurement": "learning and memory performance", "setting": "[7]", "result": "does not alter the learning and memory performance"}, {"measurement": "learning and memory performance", "setting": "[7]; listed as Picrotoxin", "result": "did not alter"}]}
